The source of these data is ChEMBL document CHEMBL3045841, “Novel diamide insecticides: sulfoximines, sulfonimidamides and other new sulfonimidoyl derivatives” (Bioorg Med Chem Lett, 2012).

The subject of data set [1] is Myzus persicae. Kind of data set: Insecticidal activity against Myzus persicae (green peach aphid) assessed as mortality by greenhouse assay. The class given is functional.
In data set [2] the test system is Plutella xylostella. Kind of data set: Insecticidal activity against Plutella xylostella (diamondback moth) assessed as mortality by greenhouse assay. The class given is functional.
The subject of data set [3] is Spodoptera littoralis. Kind of data set: Insecticidal activity against Spodoptera littoralis assessed as mortality by greenhouse assay. The class given is functional.
A short description of data set [4]: Lipophilicity, log P of the compound. It is filed as physicochemical. The note with it: octanol/water.
Data set [5] can be described thus: Aqueous solubility of the compound at pH 7. It is filed as physicochemical. The following applies: buffer.
Data set [6] deals with Spodoptera frugiperda. Kind of data set: Insecticidal activity against Spodoptera frugiperda (fall armyworm) in maize assessed as control of pests measured after 12 to 22 days of seed application. It is filed as functional, organism-based.
For data set [7], the system named is Agrotis ipsilon. Kind of data set: Insecticidal activity against Agrotis ipsilon in maize assessed as control of pests measured after 12 to 22 days of seed application. It is filed as functional, organism-based.
In data set [8] the test system is Liriomyza trifolii. Kind of data set: Insecticidal activity against Liriomyza trifolii in kidney beans assessed as control of pests measured after 12 to 22 days of seed application. It is filed as functional, organism-based.
In data set [9] the test system is Phyllotreta striolata. Kind of data set: Insecticidal activity against Phyllotreta striolata in radish assessed as control of pests measured after 12 to 22 days of seed application. The class given is functional, organism-based.
Data set [10] deals with Spodoptera littoralis. Kind of data set: Insecticidal activity against Spodoptera littoralis in maize assessed as control of pests measured after 12 to 22 days of seed application. The class given is functional, organism-based.

The EC80 is the concentration at which the effect reaches the 80% level. In general, logP refers to a log measure of how a compound divides between an organic and an aqueous phase. The low end stands for lower lipophilicity, the high end for higher lipophilicity.

In brackets after ≈: the same amount, converted by molar mass. Activity calls are given as the source filed them. The calls are words filed in the database; no cut-off is given here. Bounds are passed on as bounds.

With `Cc1cc(C#N)cc(C(=O)NC(C)(C)CS(C)(=O)=N[N+](=O)[O-])c1NC(=O)c1cc(Br)nn1-c1ncccc1Cl` (centres undefined), the 80% effect concentration (EC80) was determined as 200 µg/mL (≈ 314 µM) in data set [1], 0.8 µg/mL (≈ 1.25 µM) in data set [2] and 12.5 µg/mL (≈ 19.6 µM) in data set [3]. The logP in data set [4] was 1.9. In [5], this compound gave a solubility of 29 ppm.

As for `CN=S(=O)(CC(C)NC(=O)c1cc(C#N)cc(C)c1NC(=O)c1cc(Br)nn1-c1ncccc1Cl)NN(C)C` (centres undefined), the EC80 in data set [1] is 12.5 µg/mL (≈ 19.6 µM); in data set [2] it was 12.5 µg/mL (≈ 19.6 µM); in [3], 50 µg/mL (≈ 78.5 µM). The same compound showed a logP in data set [4] of 2.1. The compound also displayed a solubility in data set [5] of 48 ppm.

As for `Cc1cc(Cl)cc(C(=O)NC(C)(C)CS(C)(=O)=NC#N)c1NC(=O)c1cc(C(F)(F)F)nn1-c1ncccc1Cl` (centres undefined), the figures for the EC80 in data set [1], in data set [2] and in data set [3] were 200 µg/mL (≈ 324 µM), 0.8 µg/mL (≈ 1.3 µM) and 0.8 µg/mL (≈ 1.3 µM), respectively. This compound also showed a logP in [4] of 2.9. In addition, the solubility in data set [5] is listed as 14 ppm.

`CNC(=O)c1cc(Cl)cc(C)c1NC(=O)c1cc(Br)nn1-c1ncccc1Cl` [CHLORANTRANILIPROLE]: the results for the EC80 in data set [1], in data set [2] and in [3] were 50 µg/mL (≈ 103 µM), 0.8 µg/mL (≈ 1.66 µM) and 0.8 µg/mL (≈ 1.66 µM), respectively. The same compound came in with a logP in data set [4] of 2.8. The compound further gave a solubility in data set [5] of 1 ppm.

On to `Cc1cc(C(F)(C(F)(F)F)C(F)(F)F)ccc1NC(=O)c1cccc(I)c1C(=O)NC(C)(C)CS(C)(=O)=O` [FLUBENDIAMIDE], for which the EC80 in [1] is > 200 µg/mL; in [2], 3.1 µg/mL (≈ 4.54 µM); in [3] it was 3.1 µg/mL (≈ 4.54 µM). The solubility in [5] worked out at 0.3 ppm.

Take `Cc1cc(C#N)cc(C(=O)NC(C)(C)CS(C)(=N)=O)c1NC(=O)c1cc(OCC(F)(F)F)nn1-c1ncccc1Cl` (centres undefined): the EC80 in data set [1] amounted to 3.1 µg/mL (≈ 5.07 µM); in data set [2] it was 0.2 µg/mL (≈ 0.327 µM); in data set [3], 0.8 µg/mL (≈ 1.31 µM). In data set [4], this compound displayed a logP of 1.6. The compound also yielded a solubility in data set [5] of 361 ppm.

For `CN=S(=O)(CC(C)NC(=O)c1cc(C#N)cc(C)c1NC(=O)c1cc(Br)nn1-c1ncccc1Cl)NOC` (centres undefined), the EC80 in data set [1] was > 200 µg/mL; in data set [2] it was 3.1 µg/mL (≈ 4.97 µM); in data set [3], 50 µg/mL (≈ 80.1 µM). Besides, in data set [4], the logP is 1.8. Also, the solubility in data set [5] is given as 17 ppm.

With `CNS(=N)(=O)CC(C)NC(=O)c1cc(C#N)cc(C)c1NC(=O)c1cc(Br)nn1-c1ncccc1Cl` (centres undefined), the values for the concentration for an effect of 80% (EC80) in data set [1], in [2] and in data set [3] were 200 µg/mL (≈ 337 µM), 12.5 µg/mL (≈ 21 µM) and 50 µg/mL (≈ 84.2 µM), respectively. Moreover, the logP in [4] worked out at 1.1. This compound also gave a solubility in [5] of 96 ppm.

In the case of `Cc1cc(Cl)cc(C(=O)NC(C)(C)CS(C)(=N)=O)c1NC(=O)c1cc(OCC(F)(F)F)nn1-c1ncccc1Cl` (centres undefined), the results for the EC80 in data set [1], in data set [2] and in [3] were 12.5 µg/mL (≈ 20.1 µM), 0.2 µg/mL (≈ 0.322 µM) and 0.8 µg/mL (≈ 1.29 µM), respectively. In addition, the result in [6], in [7], in data set [8], in data set [9] and in data set [10] was Active. In addition, the logP in data set [4] came out at 2.4. This compound had a solubility in [5] of 295 ppm.

Turning to `Cc1cc(Cl)cc(C(=O)NC(C)(C)CS(C)(=N)=O)c1NC(=O)c1cc(C(F)(F)F)nn1-c1ncccc1Cl` (centres undefined), the EC80 in data set [1] was 50 µg/mL (≈ 84.5 µM); in data set [2] it was 0.8 µg/mL (≈ 1.35 µM); in data set [3], 0.8 µg/mL (≈ 1.35 µM). In addition, the outcome in data set [6], in [7], in [8], in data set [9] and in [10] was Active. The logP in [4] was determined as 2.4. This compound also gave a solubility in data set [5] of 196 ppm.

Take `CNC(=O)c1cc(C#N)cc(C)c1NC(=O)c1cc(Br)nn1-c1ncccc1Cl` [CYANTRANILIPROLE]: the EC80 in data set [1] is 12.5 µg/mL (≈ 26.4 µM); in data set [2] it was 0.8 µg/mL (≈ 1.69 µM); in [3], 3.1 µg/mL (≈ 6.54 µM). This compound showed a logP in data set [4] of 1.9. For the same compound, the solubility in data set [5] is 14 ppm.

In the case of `CNS(=N)(=O)CC(C)NC(=O)c1cc(Cl)cc(C)c1NC(=O)c1cc(Br)nn1-c1ncccc1Cl` (centres undefined), the EC80 in data set [1] was found to be 200 µg/mL (≈ 331 µM); in data set [2], 3.1 µg/mL (≈ 5.14 µM); in data set [3], 12.5 µg/mL (≈ 20.7 µM). Further, the logP in data set [4] turned out to be 2. The solubility in [5] worked out at 95 ppm.

Regarding `Cc1cc(C#N)cc(C(=O)NC(C)(C)CS(C)(=O)=NC#N)c1NC(=O)c1cc(Br)nn1-c1ncccc1Cl` (centres undefined), the EC80 in data set [1] turned out to be 200 µg/mL (≈ 324 µM); in data set [2], 0.8 µg/mL (≈ 1.29 µM); in data set [3], 50 µg/mL (≈ 80.9 µM). Further, the log partition coefficient (logP) in data set [4] is 1.7. For the same compound, the solubility in [5] is given as 59 ppm.

Take `Cc1cc(C#N)cc(C(=O)NC(C)(C)CS(C)(=N)=O)c1NC(=O)c1cc(Br)nn1-c1ncccc1Cl` (centres undefined): the EC80 in [1] was determined as 12.5 µg/mL (≈ 21.1 µM); in data set [2], 0.8 µg/mL (≈ 1.35 µM); in data set [3], 0.8 µg/mL (≈ 1.35 µM). The logP in data set [4] was determined as 1.1. In addition, in [5], the solubility came to 42 ppm.
